Patent publication US20250215004A1, “AZOLO COMPOUNDS FOR TREATMENT OF FIBROTIC DISEASES” (GEORG-AUGUST-UNIVERSITÄT GÖTTINGEN STIFTUNG ÖFFENTLICHEN …, priority 2022, published 2025)
Values after ≈ are worked out from the molar mass of the structure shown.

How the values were obtained:
TK173 cells [1] = assay: ELISA to detect secreted type I collagen (Pro-Collagen I alpha 1) in conditioned media of TGFβ1-treated TK173 fibroblasts; type: cell-based; settings: Homo sapiens, Fibroblast, 10 ng/ml TGFβ1 for 5 days, then compound 48 hours, Pro-Collagen I alpha 1 ELISA of conditioned media, read-out: IC50, concentration where the TGFβ-stimulated collagen secretion is attenuated by 50%
Procedure: (§1) Compound reconstitution. Prior to treatment, each compound was used from a stock solution of a concentration of 10 mg/ml in DMSO. Final concentration of DMSO in cell cultures was kept below 0.1%.
(§2) Cell culture and treatment. The human renal fibroblast cell line TK173 was derived from a normal human kidney (laboratory stock; (G. A. Müller et al., Exp. Nephrol. 1995, 3, 127). Cell line stabilization for research purposes was approved by the Ethics Committee of the Georg-August-University. TK173 cells were cultured in Dulbecco's modified Eagle's medium (DMEM, Gibco, USA) supplemented with 10% fetal bovine serum (FBS, Gibco, Germany) and 1% penicillin-streptomycin (PS, Gibco, USA) at 37° C. in a humidified atmosphere with 5% CO2. Cell line was routinely tested for mycoplasma contamination. To investigate the effect of compounds after profibrotic agent treatment, 3×10^4 TK173 cells were seeded in one well of a 6-well culture plate in normal medium. After 24 hours, the culture medium was removed, and the cells were incubated for a further 24 hours in FBS free culture medium (starvation medium). Then, 10 ng/ml TGFβ1 (R&D Systems, USA) was added to the starvation medium, and the culture medium was changed with fresh TGFβ1 in every alternate day. After 5 days of TGFβ1 treatment, cell culture medium was replaced by starvation medium with compounds at different concentration for following 48 hours of incubation.
Conditioned media containing the secretome of TK173 fibroblast were harvested after 48 hours of compound treatments. Secretion of pro-Collagen 1 was assessed with Human Pro-Collagen I alpha 1 DuoSet ELISA (R&D Systems, USA). To prepare the ELISA plate, Human Pro-Collagen I α1 Capture Antibody was diluted in ELISA Plate-coating Buffer at 4 μg/ml working concentration. 100 μl of diluted Capture Antibody was added to the 96-well microplates and incubated overnight at room temperature. After three times washing with Wash Buffer, microplates were blocked by adding 300 μl of Reagent Diluent for 1 hour at room temperature. To proceed the ELISA, Human Pro-Collagen I α1 Standards were diluted in Reagent Diluent (range between 31.3 pg/ml-2000 pg/ml) and 100 μl of standards or conditioned mediums were add into designated wells. Microplates were incubated at room temperature for 2 hours. Human Pro-Collagen I α1 Detection Antibody was prepared in Reagent Diluent at 100 ng/ml working concentration and 100 μl of diluted Detection Antibody was applied for 2 hours at room temperature after extensive washing. Then, working solution of Streptavidin-HRP with Reagent Diluent was prepared by diluting 1:40 and added into each well. After 20 minutes at room temperature incubation, microplates were washed and applied with 100 μl of Substrate Solution for 20 minutes followed by Stop Solution after washing. Finally, signals were measured at 450 nm absorbance by PHOmo Microplate Reader (Autobio, China). The amount of pro-collagen 1 antibody fusion was quantified by extrapolating the signal into a linear range of a pro-collagen 1 standard curve. Screening compounds were typically tested in at concentrations between 5 and 200 μg/ml. The IC50 values observed by the dose response curves for each compound (n=4-6, two independent experiments) were obtained by nonlinear regression analysis using Prism 9 software (GraphPad, La Jolla, USA) and represent the concentration where the TGFβ-stimulated collagen secretion is attenuated by 50%.

TK173 cells [2] = assay: Collagen I Western blot in TGFβ1-treated TK173 fibroblasts; type: cell-based; settings: Homo sapiens, Fibroblast, 10 ng/ml TGFβ1 for 5 days, then compound 48 hours, Collagen I immunoblot
Procedure: as §1, §2
Protein Extraction. Total proteins were extracted from the cultured cells by NP40 Cell Lysis Buffer (Invitrogen, USA) containing phosphatase (Sigma-Aldrich, USA) and protease inhibitor (Roche, Switzerland) followed by sonication and centrifugation at 12,000×g for 20 minutes at 4° C. to clear the lysates. The supernatant was collected and measured using Pierce BCA Protein Assay Kit (ThermoFisher Scientific) by PHOmo Microplate Reader (Autobio, China). The samples were stored at −80° C. prior to use.
Immunoblotting. Western blot analysis, 10 μg of extracted proteins were diluted in NuPAGE LDS Samples Buffer (Novex Life technologies, USA) containing 5% 2-Mercaptoethanol (Sigma-Aldrich, Germany), and following denatured for 5 minutes at 95° C. The proteins were resolved by 4-12% NuPAGE SDS-PAGE (Novex Life technologies, USA). Blots were often stripped with Thermo Scientific Restore PLUS Western Blot Stripping Buffer (Thermo Fisher Scientific, Germany) for reprobing. The following antibodies were used for immunoblotting: Collagen I (1:1000; ab233080, Abcam, USA), alpha smooth muscle Actin (1:1000; ab124964, Abcam, USA), GAPDH (1:8000; sc-32233, Santa Cruz, USA). Proteins were detected by LumiGLO chemiluminescent system (Cell Signaling Technology, USA) with appropriate secondary antibodies: anti-mouse HRP (1:2500; Dako, Denmark) and anti-rabbit HRP (1:2500; 7074, Cell Signaling Technology, USA) using ChemiDoc MP Imaging System (Bio-Rad, USA).

SMILES | IC50 (TK173 cells [1]) [mg/L] | IC50 (TK173 cells [2]) [mg/L]
Clc1cccc2cnn3nnnc3c12 [Compound 47a, 10-chlorotetrazolo[5,1-a]phthalazine] | < 5 | –
c1cc2c(cnn3nnnc23)s1 [Compound 35, Tetrazolo[1,5-b]thieno[3,2-d]pyridazine] | 30 (≈ 169 µM) | < 40
CC(C)Oc1nn2nnnc2c2c(Cl)cccc12 [Compound 72, 10-Chloro-6-isopropoxytetrazolo[5,1-a]phthalazine] | < 5 | < 5
COc1cc2cnn3c(C)nnc3c2cc1OC [Compound 9, 8,9-Dimethoxy-3-methyl-1,2,4-triazolo[3,4-a]phthalazine] | 10 (≈ 40.9 µM) | < 1
Fc1cccc2cnn3nnnc3c12 [Compound 59a, 10-Fluorotetrazolo[5,1-a]phthalazine] | < 20 | –
Fc1ccc2cnn3nnnc3c2c1 [Compound 63a, 9-Fluorotetrazolo[5,1-a]phthalazine] | < 30 | < 70
Fc1cccc2c1cnn1nnnc21 [Compound 59b, 7-fluorotetrazolo[5,1-a]phthalazine] | < 5 | –
Cc1nnc2c3ccc(F)cc3cnn12 [Compound 61b, 8-fluoro-3-methyl-[1,2,4]triazolo[3,4-a]phthalazine] | < 30 | < 80
Clc1cc2cnn3nnnc3c2cc1Cl [Compound 55, 8,9-Dichlorotetrazolo[5,1-a]phthalazine] | < 10 | < 20
Cc1nnc2c3ccccc3c(C#N)nn12 [Compound 6, 3-Methyl-1,2,4-triazolo[3,4-a]phthalazine-6-carbonitrile] | 61 (≈ 292 µM) | < 5
Cc1nn2nnnc2c2ccccc12 [Compound 2, 6-Methyl-tetrazolo[5,1-a]phthalazine] | 58 (≈ 313 µM) | –
Fc1cc2cnn3nnnc3c2cc1F [Compound 67, 8,9-difluorotetrazolo[5,1-a]phthalazine] | < 3 | –
Cc1nnc2c3cc(F)ccc3cnn12 [Compound 61a, 9-Fluoro-3-methyl-[1,2,4]triazolo[3,4-a]phthalazine] | 530 (≈ 2620 µM) | < 60
Cc1nnc2c3cc(Cl)ccc3cnn12 [Compound 49a, 9-chloro-3-methyl-[1,2,4]triazolo[3,4-a]phthalazine] | < 30 | < 50
CCc1nnc2c3ccccc3cnn12 [Compound 14, 3-Ethyl-1,2,4-triazolo[3,4-a]phthalazine] | – | < 30
c1nn2nnnc2c2cscc12 [Compound 41, Tetrazolo[1,5-b]thieno[3,4-d]pyridazine] | < 60 | –
Cc1nnc2c3ccccc3c(NCCO)nn12 [Compound 7, 2-[(3-methyl-1,2,4-triazolo[3,4-a]phthalazin-6-yl)amino]-ethanol] | 32 (≈ 132 µM) | –
Cc1nnc2c3ccc(Cl)cc3cnn12 [Compound 49b, 8-chloro-3-methyl-[1,2,4]triazolo[3,4-a]phthalazine] | 30 (≈ 137 µM) | –
OCc1nnc2c3ccccc3cnn12 [Compound 13, 1,2,4-Triazolo[3,4-a]phthalazin-3-yl-methanol] | 87 (≈ 435 µM) | –
FC(F)(F)c1nnc2c3ccccc3cnn12 [Compound 10, 3-Trifluoromethyl-1,2,4-Triazolo[3,4-a]phthalazine] | 93 (≈ 390 µM) | –
Clc1ccc2cnn3nnnc3c2c1 [Compound 51a, 9-chlorotetrazolo[5,1-a]phthalazine] | – | ≤ 40
CNc1nn2nnnc2c2ncccc12 (single isomer, unassigned) [Compound 27, N-methylpyrido[2,3-d]tetrazolo[1,5-b]pyridazin-6-amine] | – | < 30
Cc1nnc2c3c(Cl)cccc3cnn12 [Compound 45, 10-chloro-3-methyl-[1,2,4]triazolo[3,4-a]phthalazine] | 20 (≈ 91.5 µM) | –
Cc1nnc2c3cscc3cnn12 [Compound 39, 3-methylthieno[3,4-d][1,2,4]triazolo[4,3-b]pyridazine] | < 80 | –
Cc1nnc2c3cscc3c(Cl)nn12 [Compound 38, 6-chloro-3-methylthieno[3,4-d][1,2,4]triazolo[4,3-b]pyridazine] | < 80 | –
